Consider 30 compounds from patent publication US9133204B2, “5-membered heterocyclic amides and related compounds” (H. Lundbeck A/S, priority 2007, dated 2015).

Bounds are passed on as bounds.

In general, IC50 refers to the concentration that inhibits the measured activity by half.

For this experiment, the target named is T1, P2X7 receptor (Homo sapiens, UniProt Q99572).
T1 construct: host or cells: SH-SY5Y
T1 sequence (Q99572 1-595): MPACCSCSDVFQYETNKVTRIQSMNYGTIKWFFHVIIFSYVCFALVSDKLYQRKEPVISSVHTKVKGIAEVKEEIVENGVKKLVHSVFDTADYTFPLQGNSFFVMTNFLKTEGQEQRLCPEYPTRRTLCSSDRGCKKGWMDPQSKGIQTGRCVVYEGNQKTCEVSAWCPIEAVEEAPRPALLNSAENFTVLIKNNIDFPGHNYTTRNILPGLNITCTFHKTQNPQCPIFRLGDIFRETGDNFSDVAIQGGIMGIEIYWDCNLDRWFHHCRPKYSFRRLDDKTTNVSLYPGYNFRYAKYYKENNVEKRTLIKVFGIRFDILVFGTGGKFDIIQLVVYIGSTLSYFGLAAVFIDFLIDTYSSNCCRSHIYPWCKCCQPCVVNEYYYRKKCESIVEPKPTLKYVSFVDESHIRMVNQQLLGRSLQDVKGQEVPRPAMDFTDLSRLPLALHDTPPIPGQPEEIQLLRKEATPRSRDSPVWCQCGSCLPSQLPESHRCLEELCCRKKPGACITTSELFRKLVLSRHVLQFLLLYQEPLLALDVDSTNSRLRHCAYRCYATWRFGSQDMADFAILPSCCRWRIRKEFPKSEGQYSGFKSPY
Briefly: High throughput P2X7 calcium mobilization assay (Example 4A). The experiment is classed as cell-based. Particulars: SH-SY5Y cells; 50% decrease in fluorescence response of cells exposed to 80 μM BzATP; Table I. In outline:
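Calcium mobilization read by FLIPR as peak fluorescence over 2 min after adding BzATP to a final 80 μM (about EC50). Beforehand, Fluo-4 AM-loaded SH-SY5Y cells sat 1 h at room temperature with compound at 1–2500 nM in pH 7.4 sucrose/HEPES buffer; signal minus no-agonist wells.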
As to `CCc1nc(-c2ncccn2)sc1C(=O)NCC1(c2ccc(Cl)cc2)CCCCC1` [Compound 276, N-{[1-(4-chlorophenyl)cyclohexyl]methyl}-4-ethyl-2-pyrimidin-2-yl-1,3-thiazole-5-carboxamide], the IC50 is at most 2000 nM.

Turning to `CCCC(CNC(=O)c1sc(-c2ncccn2)nc1CC)c1ccc(Cl)cc1` (stereo not drawn) [Compound 277, N-[2-(4-chlorophenyl)pentyl]-4-ethyl-2-pyrimidin-2-yl-1,3-thiazole-5-carboxamide], the half-inhibitory concentration (IC50) was at most 2000 nM.

Turning to `COc1ccc(C2(CNC(=O)c3sc(-c4ncccn4)nc3C(F)(F)F)CCCC2)cc1` [Compound 285, N-{[1-(4-methoxyphenyl)cyclopentyl]methyl}-2-pyrimidin-2-yl-4-(trifluoromethyl)-1,3-thiazole-5-carboxamide], the IC50 is at most 2000 nM.

For `O=C(NCC(c1ccc(Cl)cc1)N1CCCC1)c1sc(-c2ncccn2)nc1C(F)(F)F` (stereo not drawn) [Compound 286, N-[2-(4-chlorophenyl)-2-pyrrolidin-1-ylethyl]-2-pyrimidin-2-yl-4-(trifluoromethyl)-1,3-thiazole-5-carboxamide], the 50% inhibitory concentration (IC50) was at most 2000 nM.

`O=C(NCC1(c2ccc(Cl)nc2)CCCC1)c1sc(-c2ncccn2)nc1C(F)(F)F` [Compound 287, N-{[1-(6-chloropyridin-3-yl)cyclopentyl]methyl}-2-pyrimidin-2-yl-4-(trifluoromethyl)-1,3-thiazole-5-carboxamide]: the half-maximal inhibitory concentration (IC50) is at most 2000 nM.

On to `CCc1nc(-c2ncccn2)sc1C(=O)NCC1(c2ccc(Cl)nc2)CCCC1` [Compound 288, N-{[1-(6-chloropyridin-3-yl)cyclopentyl]methyl}-4-ethyl-2-pyrimidin-2-yl-1,3-thiazole-5-carboxamide], for which the IC50 was at most 2000 nM.

Take `Cc1nc(-c2ncccn2)sc1C(=O)NCC1(c2cccnc2)CCCCC1` [Compound 289, 4-methyl-N-[(1-pyridin-3-ylcyclohexyl)methyl]-2-pyrimidin-2-yl-1,3-thiazole-5-carboxamide]: the half-maximal inhibitory concentration (IC50) is at most 2000 nM.

Regarding `Cc1nc(-c2ncccn2)sc1C(=O)NCC(CC(C)C)c1ccc(C(F)(F)F)cc1` (stereo not drawn) [Compound 290, 4-methyl-N-{4-methyl-2-[4-(trifluoromethyl)phenyl]pentyl}-2-pyrimidin-2-yl-1,3-thiazole-5-carboxamide], the 50% inhibitory concentration (IC50) is at most 2000 nM.

For the compound `O=C(NCC1(c2ccc(Cl)nc2)CCCCC1)c1sc(-c2ncccn2)nc1C(F)(F)F` [Compound 291, N-{[1-(6-chloropyridin-3-yl)cyclohexyl]methyl}-2-pyrimidin-2-yl-4-(trifluoromethyl)-1,3-thiazole-5-carboxamide], the concentration for half-maximal inhibition (IC50) was at most 2000 nM.

Turning to `CC(C)CC(CNC(=O)c1sc(-c2ncccn2)nc1C(F)(F)F)c1ccc(Cl)nc1` (stereo not drawn) [Compound 292, N-[2-(6-chloropyridin-3-yl)-4-methylpentyl]-2-pyrimidin-2-yl-4-(trifluoromethyl)-1,3-thiazole-5-carboxamide], the IC50 was at most 2000 nM.

As for `O=C(NCC1(c2cccnc2)CCCCC1)c1sc(-n2ccccc2=O)nc1C(F)(F)F` [Compound 293, 2-(2-oxopyridin-1(2H)-yl)-N-[(1-pyridin-3-ylcyclohexyl)methyl]-4-(trifluoromethyl)-1,3-thiazole-5-carboxamide], the IC50 is at most 2000 nM.

As for `O=C(NCC1(c2cccnc2)CCCCC1)c1sc(N2CCOCC2)nc1C(F)(F)F` [Compound 294, 2-morpholin-4-yl-N-[(1-pyridin-3-ylcyclohexyl)methyl]-4-(trifluoromethyl)-1,3-thiazole-5-carboxamide], the half-inhibitory concentration (IC50) is at most 2000 nM.

Regarding `O=C(NCC1(c2cccnc2)CCCCC1)c1sc(N2CCC(O)CC2)nc1C(F)(F)F` [Compound 295, 2-(4-hydroxypiperidin-1-yl)-N-[(1-pyridin-3-ylcyclohexyl)methyl]-4-(trifluoromethyl)-1,3-thiazole-5-carboxamide], the concentration for half-maximal inhibition (IC50) was at most 2000 nM.

Consider `O=C(NCC1(N2CCCCC2)CCCCC1)c1sc(-c2ncccn2)nc1C(F)(F)F` [Compound 296, N-[(1-piperidin-1-ylcyclohexyl)methyl]-2-pyrimidin-2-yl-4-(trifluoromethyl)-1,3-thiazole-5-carboxamide], for which the IC50 was at most 2000 nM.

Consider `CC(C)n1cc(C2(CNC(=O)c3sc(-c4ncccn4)nc3C(F)(F)F)CCCCC2)cn1` [Compound 297, N-{[1-(1-isopropyl-1H-pyrazol-4-yl)cyclohexyl]methyl}-2-pyrimidin-2-yl-4-(trifluoromethyl)-1,3-thiazole-5-carboxamide], for which the 50% inhibitory concentration (IC50) is at most 2000 nM.

In the case of `CCc1nc(-c2ncccn2)sc1C(=O)NCC1(c2ccc(Cl)nc2)CCCCC1` [Compound 298, N-{[1-(6-chloropyridin-3-yl)cyclohexyl]methyl}-4-ethyl-2-pyrimidin-2-yl-1,3-thiazole-5-carboxamide], the IC50 was at most 2000 nM.

As to `CCc1nc(-c2ncccn2)sc1C(=O)NCC(CC(C)C)c1ccc(Cl)nc1` (stereo not drawn) [Compound 299, N-[2-(6-chloropyridin-3-yl)-4-methylpentyl]-4-ethyl-2-pyrimidin-2-yl-1,3-thiazole-5-carboxamide], the IC50 was at most 2000 nM.

For `O=C(NCC1(c2cccnc2)CCCCC1)c1sc(N2CCNCC2)nc1C(F)(F)F` [Compound 300, 2-piperazin-1-yl-N-[(1-pyridin-3-ylcyclohexyl)methyl]-4-(trifluoromethyl)-1,3-thiazole-5-carboxamide], the IC50 was at most 2000 nM.

Regarding `CC(C)(C)OC(=O)NC1CCN(c2nc(C(F)(F)F)c(C(=O)NCC3(c4cccnc4)CCCCC3)s2)CC1` [Compound 301, tert-butyl {1-[5-{[(1-pyridin-3-ylcyclohexyl)methyl]carbamoyl}-4-(trifluoromethyl)-1,3-thiazol-2-yl]piperidin-4-yl}carbamate], the concentration for half-maximal inhibition (IC50) was at most 2000 nM.

As to `O=C(NCC1(c2cccnc2)CCCCC1)c1sc(N2CCC(N3CCCC3)CC2)nc1C(F)(F)F` [Compound 302, N-[(1-pyridin-3-ylcyclohexyl)methyl]-2-(4-pyrrolidin-1-ylpiperidin-1-yl)-4-(trifluoromethyl)-1,3-thiazole-5-carboxamide], the IC50 is at most 2000 nM.

With `NC1CCN(c2nc(C(F)(F)F)c(C(=O)NCC3(c4cccnc4)CCCCC3)s2)CC1` [Compound 303, 2-(4-aminopiperidin-1-yl)-N-[(1-pyridin-3-ylcyclohexyl)methyl]-4-(trifluoromethyl)-1,3-thiazole-5-carboxamide], the half-maximal inhibitory concentration (IC50) is at most 2000 nM.

As to `CC(C)CC(CNC(=O)c1sc(-c2ncccn2)nc1C(F)(F)F)c1ccc(C(F)(F)F)nc1` (stereo not drawn) [Compound 304, N-{4-methyl-2-[6-(trifluoromethyl)pyridin-3-yl]pentyl}-2-pyrimidin-2-yl-4-(trifluoromethyl)-1,3-thiazole-5-carboxamide], the IC50 was at most 2000 nM.

Consider `CCc1nc(-c2ncccn2)sc1C(=O)NCC(CC(C)C)c1ccc(C(F)(F)F)nc1` (stereo not drawn) [Compound 305, 4-ethyl-N-{4-methyl-2-[6-(trifluoromethyl)pyridin-3-yl]pentyl}-2-pyrimidin-2-yl-1,3-thiazole-5-carboxamide], for which the IC50 was at most 2000 nM.

As to `Cc1nc(-c2ncccn2)sc1C(=O)NCC(CC(C)C)c1ccc(C(F)(F)F)nc1` (stereo not drawn) [Compound 306, 4-methyl-N-{4-methyl-2-[6-(trifluoromethyl)pyridin-3-yl]pentyl}-2-pyrimidin-2-yl-1,3-thiazole-5-carboxamide], the concentration for half-maximal inhibition (IC50) was at most 2000 nM.

Regarding `O=C(NCC1(c2cccnc2)CCCCC1)c1sc(-n2ncccc2=O)nc1C(F)(F)F` [Compound 307, 2-(6-oxopyridazin-1(6H)-yl)-N-[(1-pyridin-3-ylcyclohexyl)methyl]-4-(trifluoromethyl)-1,3-thiazole-5-carboxamide], the half-maximal inhibitory concentration (IC50) was at most 2000 nM.

As for `O=C(NCC1(c2cccnc2)CCCCC1)c1sc(-n2ccnn2)nc1C(F)(F)F` [Compound 308, N-[(1-pyridin-3-ylcyclohexyl)methyl]-2-(1H-1,2,3-triazol-1-yl)-4-(trifluoromethyl)-1,3-thiazole-5-carboxamide], the IC50 is at most 2000 nM.

`O=C(NCC1(c2cccnc2)CCCCC1)c1sc(-n2nccn2)nc1C(F)(F)F` [Compound 309, N-[(1-pyridin-3-ylcyclohexyl)methyl]-2-(2H-1,2,3-triazol-2-yl)-4-(trifluoromethyl)-1,3-thiazole-5-carboxamide]: the IC50 is at most 2000 nM.

As for `O=C(NCC1(c2cccnc2)CCCCC1)c1sc(-n2cncn2)nc1C(F)(F)F` [Compound 310, N-[(1-pyridin-3-ylcyclohexyl)methyl]-2-(1H-1,2,4-triazol-1-yl)-4-(trifluoromethyl)-1,3-thiazole-5-carboxamide], the concentration for half-maximal inhibition (IC50) is at most 2000 nM.

As for `Cc1nc(-c2cccnc2)sc1C(=O)NCC1(c2cccnc2)CCCCC1` [Compound 311, 4-methyl-2-pyridin-3-yl-N-[(1-pyridin-3-ylcyclohexyl)methyl]-1,3-thiazole-5-carboxamide], the 50% inhibitory concentration (IC50) was at most 2000 nM.

Turning to `CN1CCN(C2(CNC(=O)c3sc(-c4ncccn4)nc3C(F)(F)F)CCCCC2)CC1` [Compound 312, N-{[1-(4-methylpiperazin-1-yl)cyclohexyl]methyl}-2-pyrimidin-2-yl-4-(trifluoromethyl)-1,3-thiazole-5-carboxamide], the IC50 is at most 2000 nM.
